Here are results for six molecules from US5428018A, “Phenylalanine analogs of bombesin” (Merrell Dow Pharmaceuticals Inc., priority 1994, dated 1995).

As usually defined, the Kd is the constant that tells how readily two partners part at equilibrium.

Where two headings read alike, the source gives them in different places. *1 amine or outer side, *2 acyl side, *3 side chain or, on linkers, in order; H or OH if unused. Where a SMILES comes first, the peptide text is derived from it. [ ]: non-standard residue; d: D form. The star is where a group is joined. X2 = CC(C)C[C@@H](C(N)=O)S(=O)(=O)C[C@H](Cc1ccccc1)N*; X1 = CN(/C(=C\c1ccccc1)C(=O)[*:2])[*:1]; pGlu = O=C1CC[C@@H](C(=O)O)N1

The target of experiment [1] is T1, bombesin receptor (Mus musculus, UniProt P21729).
T1 construct: from tissue
T1 sequence (P21729 whole entry): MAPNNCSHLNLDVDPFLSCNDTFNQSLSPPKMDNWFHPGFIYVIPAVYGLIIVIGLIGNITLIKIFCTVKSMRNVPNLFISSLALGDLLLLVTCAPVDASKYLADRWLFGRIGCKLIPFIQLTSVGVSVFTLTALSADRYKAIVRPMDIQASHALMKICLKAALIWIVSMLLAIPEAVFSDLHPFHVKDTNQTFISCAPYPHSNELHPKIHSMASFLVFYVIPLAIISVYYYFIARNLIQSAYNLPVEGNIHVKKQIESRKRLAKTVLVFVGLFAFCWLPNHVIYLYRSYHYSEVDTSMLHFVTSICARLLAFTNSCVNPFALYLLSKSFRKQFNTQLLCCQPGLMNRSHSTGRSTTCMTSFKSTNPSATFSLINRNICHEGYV
The experiment can be described thus: Competitive binding of 125I-GRP to the bombesin receptor in mouse pancreas membranes. The protocol: (§1) Pept. […] Pept 32: 241-251, 1991.
The pancreas from one or more mice were pooled and homogenized in 50 mM HEPES (pH 7.4) containing 120 mM NaCl, 5 mM KCl, and protease inhibitors (1 μg/ml aprotinin, leupeptin, pepstatin; 4 μg/ml bacitracin, antipain, bestatin; 100 μM PMSF; 1 mM EDTA) at 4° C. and centrifuged at 37,500 × g for 15 minutes. The pellet was resuspended in 50 mM HEPES (pH 7.4) containing 10 mM EDTA, 300 mM KCl, and protease inhibitors, and then incubated for 30 minutes at 4° C. The suspension was centrifuged as above and the pellet was washed two times in 50 mM HEPES (pH 7.4) containing 0.8 μg/ml thiorphan and protease inhibitors, and again centrifuged. The tissue was then resuspended in incubation buffer (1 ml per 4 mg pancreas) and incubated for 15 minutes at room temperature, then 250 μl were added to each assay tube to commence the assay. The assay tubes contained incubation buffer consisting of 50 mM HEPES (pH 7.4), 0.5% BSA, protease inhibitors, 2 mM MnCl2, 0.8 μg/ml thiorphan, 1 μM somatostatin, and concentrations of ^125 I-GRP and peptides as needed in a final volume of 500 μl. The assay was allowed to proceed to equilibrium for 90 minutes at room temperature. After this time, the contents of each tube were rapidly filtered over Whatman GF/B filters presoaked in 0.1% polyethyleneimine and the tubes and filters were rapidly washed three times with ice-cold 50 mM HEPES (pH 7.4). Filter-bound radioactivity was quantitated in a gamma counter. Competition of iodinated GRP binding by test compounds or standards was expressed as a percentage of ^125 I-GRP binding in the absence of peptide. Affinity and maximal binding were calculated with LIGAND (Biosoft, Cambridge, UK).

Experiment [2] concerns the target T1, bombesin receptor. Briefly: Phosphatidylinositol (PI) turnover in chopped mouse pancreas. In kind it is cell-based. The protocol:
as §1
Pancrea from mice were chopped at 350 μm with a tissue chopper and pooled in Krebs-Hepes buffer [118 mM NaCl, 1.2 mM K2 PO4, 4.7 mM KCl, 1.2 mM MgSO4, 1.0 mM CaCl2, 11.7 mM glucose, 20 mM Hepes (pH 7.4)]. The chopped tissue was washed once with oxygenated Krebs-Hepes,then incubated for 30 minutes in 37° C. oxygenated Krebs-Hepes buffer with fresh buffer after 15 minutes. The tissue was then incubated in this buffer containing 200 μCi of [^3 H]inositot at 37° C. for 1 hour. The tissue was then washed twice and incubated for another 30 minutes in oxygenated Krebs-Hepes (containing 10 mM Li+) at 37° C. and with fresh buffer change after 15 minutes. Portions of the tissue mass (approximately 10 mg per assay tube) were then placed in Li+ buffer with protease inhibitors (40 μg/ml bacitracin, 4 μg/ml leupeptin, 4 μg/ml chymostatin, 0.8 μg/ml thiorphan), 0.1% BSA, and 0.1-1000 μM peptide. After 60 minutes at room temperature, the phosphatidylinositol turnover was terminated by the addition of 940 μl chloroform:methanol (1:2), followed by 310 μl chloroform, followed by 310 μl water. Each tube was then vortexed three times for 5 seconds each time and then centrifuged at […] for 8 minutes to separate the phases. 50 μl of the bottom phase (chloroform) was withdrawn from each tube and placed in a counting vial, dried, and counted in scintillation fluid. 900 μl of the top (aqueous) phase was then mixed with 2.1 ml water and loaded onto a 0.5 ml Biorad AG-1×8 (formate) ion exchange column. The material on the columns was washed in order with: 1) 10 ml of water 2) 5 ml of […] disodium tetraborate/60 mM sodium formate 3) 10 ml of 1M ammonium formate in 0.1M formic acid. The final (third) wash was collected and one ml was mixed with 14 ml of Bio-Safe or E-Colume scintillant and counted. The ratio of these counts (total inositol phosphates) to the corresponding organic phase counts (inositol incorporated into the tissue) was then calculated for each sample. The ratios in the presence of test compound and/or standards were then compared to the ratios for control tubes (i.e., no stimulating agonist). The abilities of test compounds to stimulate phosphatidylinositol turnover were determined with the aid of a computer program.

Experiment [3] concerns cell surface receptors that bind bombesin. The note with it: background section; read-out: KD of high-affinity cell surface receptors that bind bombesin; cited from earlier work.

With `COC(=O)/C(=C/c1ccccc1)N(C)C(=O)[C@H](CC(C)C)NC(=O)[C@H](Cc1c[nH]cn1)NC(=O)[C@@H](C)NC(=O)[C@@H](NC(=O)[C@H](C)NC(=O)[C@H](Cc1c[nH]c2ccccc12)NC(=O)[C@H](CCC(N)=O)NC(=O)[C@@H](Cc1ccccc1)NC(C)=O)C(C)C` [Analog VIII, (Ac-D-Phe^1,D-Ala^6,Leu^8,N(Me)Δ^Z Phe^9) litorin-OMe] (Ac-[dF]QWAV[dA]HL[X1]-OMe), the Kd in experiment [1] (competitive binding vs 125I-GRP, mouse pancreas, read-out: Kd) came to 65.3 nM.

In the case of `CSCC[C@H](NC(=O)[C@H](CC(C)C)NC(=O)[C@H](Cc1cnc[nH]1)NC(=O)CNC(=O)[C@@H](NC(=O)[C@H](C)NC(=O)[C@H](Cc1c[nH]c2ccccc12)NC(=O)[C@H](CCC(N)=O)NC(=O)[C@H](CC(N)=O)NC(=O)CNC(=O)[C@H](CC(C)C)NC(=O)[C@H](CCCN=C(N)N)NC(=O)[C@H](CCC(N)=O)NC(=O)[C@@H]1CCC(=O)N1)C(C)C)C(N)=O` [Analog II, Bombesin], in experiment [2], the Agonist result was “+” and the Antagonist result is “-”. Also, the Kd in experiment [3] is 1 nM.

In experiment [1], `CC(C)C[C@@H](C(N)=O)S(=O)(=O)C[C@H](Cc1ccccc1)NC(=O)[C@H](Cc1c[nH]cn1)NC(=O)CNC(=O)[C@@H](NC(=O)[C@H](C)NC(=O)[C@H](Cc1c[nH]c2ccccc12)NC(=O)[C@H](CCC(N)=O)NC(=O)[C@@H]1CCC(=O)N1)C(C)C` [Analog IX, (Phe^8 .PSI.[CH2 SO2]Leu^9 litorin] ([pGlu]QWAVGH-X2; C-terminus assumed) registered a dissociation constant Kd of 9.9 nM. In experiment [2], this molecule returned an Antagonist of 30. Moreover, the “Agonist/antagonist character in words” value in experiment [2] (text under Table 1) is recorded as “antagonist”.

As to `CSCC[C@H](NC(=O)[C@H](Cc1ccccc1)NC(=O)[C@H](Cc1c[nH]cn1)NC(=O)CNC(=O)[C@@H](NC(=O)[C@H](C)NC(=O)[C@H](Cc1c[nH]c2ccccc12)NC(=O)[C@H](CCC(N)=O)NC(=O)[C@@H]1CCC(=O)N1)C(C)C)C(N)=O` [Analog III, Litorin], in experiment [2], the Agonist result is recorded as “+” and the Antagonist entry was “-”.

In experiment [1], `COC(=O)/C(=C/c1ccccc1)NC(=O)[C@H](CC(C)C)NC(=O)[C@H](Cc1c[nH]cn1)NC(=O)CNC(=O)[C@@H](NC(=O)[C@H](C)NC(=O)[C@H](Cc1c[nH]c2ccccc12)NC(=O)[C@H](CCC(N)=O)NC(=O)[C@@H](Cc1ccccc1)NC(C)=O)C(C)C` [Analog IV, (Ac-D-Phe^1,Leu^8,Δ^Z Phe9)litorin-OMe] gave a Kd of 1.18 nM.

For `COC(=O)/C(=C\c1ccccc1)NC(=O)[C@H](CC(C)C)NC(=O)[C@H](Cc1c[nH]cn1)NC(=O)CNC(=O)[C@@H](NC(=O)[C@H](C)NC(=O)[C@H](Cc1c[nH]c2ccccc12)NC(=O)[C@H](CCC(N)=O)NC(=O)[C@@H](Cc1ccccc1)NC(C)=O)C(C)C` [Analog VII, (Ac-D-Phe^1,Leu^8,Δ^E Phe^9)litorin-OMe], the Kd in experiment [1] was 18.6 nM.
